The source of these data is patent publication US20260250257A1, “ANTIBACTERIAL AND SYNERGISTIC ACTIVE COMPOUND AND USE THEREOF” (EAST CHINA UNIVERSITY OF SCIENCE AND TECHNOLOGY, priority 2023, published 2026).

What all share (assay type): cell-based
Assay [1] relates to ATCC13883 strain (Klebsiella pneumoniae). The assay can be described thus: Checkerboard antibacterial synergistic activity test with polymyxin E (FIC). Set-up: key: FIC≤0.5 synergy; 0.5–1 additive; 1–2 indifferent; ≥2 antagonism. As to conditions: combined with polymyxin E. The essentials: (§1)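 Interaction is reported as the fractional inhibitory concentration, read after 16 h of growth at 37° C. in Mueller-Hinton broth. Each well paired one level of polymyxin E (prepared at 16 to 0.015 μg/ml) with one of the test agent (prepared at 256 to 4 μg/ml) before bacteria were added.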

The subject of assay [2] is ATCC19606 strain (Acinetobacter baumannii). The description is as above. Also on record: key: FIC≤0.5 synergy; 0.5–1 additive; 1–2 indifferent; ≥2 antagonism. As to conditions: combined with polymyxin E. An outline of the steps: as §1
In assay [3] the test system is ATCC25922 strain (Escherichia coli). The assay is described as above. Also on record: key: FIC≤0.5 synergy; 0.5–1 additive; 1–2 indifferent; ≥2 antagonism. The note with it: combined with polymyxin E. The essentials: as §1
The test system of assay [4] is ATCC9027 strain (Pseudomonas aeruginosa). The assay is described as above. Also on record: key: FIC≤0.5 synergy; 0.5–1 additive; 1–2 indifferent; ≥2 antagonism. As to conditions: combined with polymyxin E. The essentials:
as §1

Assay [5] deals with ATCC13883 strain (Klebsiella pneumoniae). Briefly: Broth microdilution, antibacterial activity of the compound used alone. As to conditions: for MIC: read-out: Antibacterial activity of the compound of Formula I, ATCC13883. The source says: (§2) The broth microdilution method was used to test the antibacterial effects of the compounds of the present invention against various Gram-negative bacterial strains when used alone.
For orientation: In broth dilution the organism is exposed to a series of concentrations in liquid medium.

Assay [6] deals with ATCC19606 strain (Acinetobacter baumannii). The description is as above. The note with it: for MIC: read-out: Antibacterial activity of the compound of Formula I, ATCC19606.
Excerpt: as §2

In assay [7] the test system is ATCC25922 strain (Escherichia coli). The description is as above. The note with it: for MIC: read-out: Antibacterial activity of the compound of Formula I, ATCC25922.
Excerpt: as §2

Assay [8] concerns ATCC9027 strain (Pseudomonas aeruginosa). The assay is described as above. As to conditions: for MIC: read-out: Antibacterial activity of the compound of Formula I, ATCC9027.
Excerpt: as §2

In brackets after ≈: the same amount, converted by molar mass.

With `O=C(NC1CC1)c1ccc(-c2nccs2)c(-c2nc(N=C3NCCCN3)sc2Br)c1` [Compound I-141], the “Synergistic activity (FIC value) ATCC13883” value in assay [1] was found to be 1.25. Besides, the “Synergistic activity (FIC value) ATCC19606” value in assay [2] came to 0.51. The “Synergistic activity (FIC value) ATCC25922” value in assay [3] is given as 1.25. Moreover, the “Synergistic activity (FIC value) ATCC9027” value in assay [4] stood at 0.52. For the same compound, in assay [5], the “Antibacterial activity of the compound of Formula I, ATCC13883” value (“Antibacterial activity … ATCC13883” below) turned out to be 256 µg/mL. In addition, the “Antibacterial activity of the compound of Formula I, ATCC19606” value (shortened to “Antibacterial activity … ATCC19606”) in assay [6] stood at 256 µg/mL. The “Antibacterial activity of the compound of Formula I, ATCC25922” value (“Antibacterial activity … ATCC25922” for short) in assay [7] was 256 µg/mL. Further, in assay [8], the “Antibacterial activity of the compound of Formula I, ATCC9027” value (“Antibacterial activity … ATCC9027” below) worked out at 256 µg/mL.
As for `Cc1ccc2cccc(-c3nc(N=C(N)N)oc3C)c2c1` [Compound I-58], the “Synergistic activity (FIC value) ATCC13883” value in assay [1] was 0.25. For the same compound, the “Synergistic activity (FIC value) ATCC19606” value in assay [2] is 0.28. Also, in assay [3], the “Synergistic activity (FIC value) ATCC25922” value turned out to be 0.5. The “Synergistic activity (FIC value) ATCC9027” value in assay [4] is given as 0.63. For the same compound, the “Antibacterial activity … ATCC13883” value in assay [5] was determined as 256 µg/mL. For the same compound, in assay [6], the “Antibacterial activity … ATCC19606” value came out at 256 µg/mL. In addition, the “Antibacterial activity … ATCC25922” value in assay [7] amounted to 256 µg/mL. For the same compound, the “Antibacterial activity … ATCC9027” value in assay [8] was determined as 256 µg/mL.
Consider `CSc1cc2c(Cl)cccn2c1-c1nc(N=C2NCCCN2)sc1Cl` [Compound I-196], for which, in assay [1], the “Synergistic activity (FIC value) ATCC13883” value was found to be 0.19. For the same compound, the “Synergistic activity (FIC value) ATCC19606” value in assay [2] is 0.13. In assay [3], the “Synergistic activity (FIC value) ATCC25922” value turned out to be 0.52. The “Synergistic activity (FIC value) ATCC9027” value in assay [4] worked out at 1.25. Moreover, in assay [5], the “Antibacterial activity … ATCC13883” value is 256 µg/mL. Further, the “Antibacterial activity … ATCC19606” value in assay [6] is 256 µg/mL. The “Antibacterial activity … ATCC25922” value in assay [7] came out at 256 µg/mL. In addition, the “Antibacterial activity … ATCC9027” value in assay [8] stood at 256 µg/mL.
In the case of `CNS(=O)(=O)c1cc(-c2c[se]c(N=C3NCCCN3)n2)ccc1C` [Compound I-171], the “Synergistic activity (FIC value) ATCC13883” value in assay [1] is 0.63. Further, the “Synergistic activity (FIC value) ATCC19606” value in assay [2] is given as 0.75. Further, the “Synergistic activity (FIC value) ATCC25922” value in assay [3] came to 0.5. Also, the “Synergistic activity (FIC value) ATCC9027” value in assay [4] stood at 0.56. In assay [5], the “Antibacterial activity … ATCC13883” value was found to be 256 µg/mL. Moreover, the “Antibacterial activity … ATCC19606” value in assay [6] turned out to be 256 µg/mL. In addition, the “Antibacterial activity … ATCC25922” value in assay [7] is 256 µg/mL. Besides, the “Antibacterial activity … ATCC9027” value in assay [8] was 256 µg/mL.
As to `COc1ccc(Oc2ccccc2-c2csc(N=C(N)N)n2)c(OC)c1` [Compound I-88], the “Synergistic activity (FIC value) ATCC13883” value in assay [1] is 0.13. Moreover, the “Synergistic activity (FIC value) ATCC19606” value in assay [2] is listed as 0.04. In addition, the “Synergistic activity (FIC value) ATCC25922” value in assay [3] is 0.2. For the same compound, the “Synergistic activity (FIC value) ATCC9027” value in assay [4] is recorded as 0.28. Further, the “Antibacterial activity … ATCC13883” value in assay [5] turned out to be 256 µg/mL. The “Antibacterial activity … ATCC19606” value in assay [6] was 256 µg/mL. In addition, the “Antibacterial activity … ATCC25922” value in assay [7] is 256 µg/mL. Also, the “Antibacterial activity … ATCC9027” value in assay [8] came to 256 µg/mL.
As to `NC(N)=Nc1nc(C2CC3CC4CC3CC2C4)cs1` (stereo not drawn) [Compound I-117], the “Synergistic activity (FIC value) ATCC13883” value in assay [1] is listed as 0.25. In addition, the “Synergistic activity (FIC value) ATCC19606” value in assay [2] is given as 0.5. The “Synergistic activity (FIC value) ATCC25922” value in assay [3] worked out at 0.63. The “Synergistic activity (FIC value) ATCC9027” value in assay [4] was found to be 1.25. Further, the MIC in assay [5] was found to be 64 µg/mL (≈ 232 µM); in assay [6], 256 µg/mL (≈ 926 µM); in assay [7] it was 32 µg/mL (≈ 116 µM); in assay [8], 16 µg/mL (≈ 57.9 µM).
For the compound `N#Cc1ccc(-c2csc(N=C3NCCCN3)n2)c(Br)c1` [Compound I-174], the “Synergistic activity (FIC value) ATCC13883” value in assay [1] was 0.52. Besides, the “Synergistic activity (FIC value) ATCC19606” value in assay [2] was 0.52. For the same compound, in assay [3], the “Synergistic activity (FIC value) ATCC25922” value is recorded as 0.63. Besides, the “Synergistic activity (FIC value) ATCC9027” value in assay [4] is on record as 1.25. In addition, the “Antibacterial activity … ATCC13883” value in assay [5] amounted to 256 µg/mL. In addition, the “Antibacterial activity … ATCC19606” value in assay [6] was 256 µg/mL. For the same compound, in assay [7], the “Antibacterial activity … ATCC25922” value was found to be 256 µg/mL. Further, the “Antibacterial activity … ATCC9027” value in assay [8] was found to be 256 µg/mL.
As for `Ic1ccccc1Oc1ccccc1-c1csc(N=C2NCCCN2)n1` [Compound I-147], the “Synergistic activity (FIC value) ATCC13883” value in assay [1] is on record as 0.16. Besides, the “Synergistic activity (FIC value) ATCC19606” value in assay [2] was 0.03. Moreover, the “Synergistic activity (FIC value) ATCC25922” value in assay [3] was 0.18. Moreover, in assay [4], the “Synergistic activity (FIC value) ATCC9027” value is reported as 0.28. Besides, in assay [5], the “Antibacterial activity … ATCC13883” value is 128 µg/mL. Besides, the “Antibacterial activity … ATCC19606” value in assay [6] stood at 256 µg/mL. In addition, the “Antibacterial activity … ATCC25922” value in assay [7] was found to be 128 µg/mL. Also, the “Antibacterial activity … ATCC9027” value in assay [8] stood at 64 µg/mL.
Turning to `Cc1cc(C)c(-c2csc(N=C(N)N)n2)c(C)c1` [Compound I-51], the “Synergistic activity (FIC value) ATCC13883” value in assay [1] is listed as 1.25. Further, the “Synergistic activity (FIC value) ATCC19606” value in assay [2] amounted to 1.25. Besides, the “Synergistic activity (FIC value) ATCC25922” value in assay [3] is given as 0.5. Besides, the “Synergistic activity (FIC value) ATCC9027” value in assay [4] amounted to 1.25. Besides, the MIC in assay [5], in assay [6], in assay [7] and in assay [8] was 256 µg/mL (≈ 983 µM) each time.
Turning to `O=[N+]([O-])c1cc(-c2nc(N=C3NCCCN3)sc2Br)ccc1Br` [Compound I-176], in assay [1], the “Synergistic activity (FIC value) ATCC13883” value was 0.31. Further, in assay [2], the “Synergistic activity (FIC value) ATCC19606” value was determined as 0.13. In addition, the “Synergistic activity (FIC value) ATCC25922” value in assay [3] stood at 0.38. In addition, in assay [4], the “Synergistic activity (FIC value) ATCC9027” value is 0.53. For the same compound, the “Antibacterial activity … ATCC13883” value in assay [5] was 256 µg/mL. Moreover, in assay [6], the “Antibacterial activity … ATCC19606” value was 256 µg/mL. The “Antibacterial activity … ATCC25922” value in assay [7] was 256 µg/mL. Moreover, the “Antibacterial activity … ATCC9027” value in assay [8] was found to be 256 µg/mL.
In the case of `Cc1[nH]c(N=C2NCCCN2)nc1-c1cc(C(C)(C)C)cc(C(C)(C)C)c1` [Compound I-162], the “Synergistic activity (FIC value) ATCC13883” value in assay [1] is recorded as 0.16. In addition, in assay [2], the “Synergistic activity (FIC value) ATCC19606” value was 0.03. In addition, the “Synergistic activity (FIC value) ATCC25922” value in assay [3] was found to be 0.18. Also, the “Synergistic activity (FIC value) ATCC9027” value in assay [4] is 0.28. In assay [5], the “Antibacterial activity … ATCC13883” value was 256 µg/mL. Also, the “Antibacterial activity … ATCC19606” value in assay [6] was found to be 256 µg/mL. Moreover, the “Antibacterial activity … ATCC25922” value in assay [7] is 256 µg/mL. Besides, the “Antibacterial activity … ATCC9027” value in assay [8] stood at 256 µg/mL.
Take `Fc1cc(Oc2ccc(Cl)cc2Cl)cc(-c2csc(N=C3NCCCN3)n2)c1` [Compound I-161]: the “Synergistic activity (FIC value) ATCC13883” value in assay [1] came out at 0.09. For the same compound, the “Synergistic activity (FIC value) ATCC19606” value in assay [2] came to 0.31. Also, in assay [3], the “Synergistic activity (FIC value) ATCC25922” value is on record as 0.14. Besides, the “Synergistic activity (FIC value) ATCC9027” value in assay [4] was found to be 0.06. In assay [5], the “Antibacterial activity … ATCC13883” value was 256 µg/mL. The “Antibacterial activity … ATCC19606” value in assay [6] was 256 µg/mL. The “Antibacterial activity … ATCC25922” value in assay [7] worked out at 256 µg/mL. Further, the “Antibacterial activity … ATCC9027” value in assay [8] was determined as 256 µg/mL.
